Results published in US8182842B1, “Physico-chemical-managed killing of penicillin-resistant static and growing gram-positive and gram-negative vegetative bacteria” (The United States of America as represented by the …, priority 2010, dated 2012).
“Also recorded” adds a separate entry of the source.

What was measured:
[1] = test system: methicillin-resistant Staphylococcus aureus (MRSA); test: kill curve time course of MRSA suspensions (CFU survival); format: cell-based
Protocol: FIGS. 1 through 17 illustrate kill curve time course experiments of stationary and logarithmic-phase MRSA bacterial suspensions exposed to PBS as well as denaturing SS at pH […] or pH 7.4 in the presence of cloxacillin concentrations spanning from 512 μg/ml to 4096 μg/ml. Experiments were conducted at 22° C. or 35° C. The completion time for the experiments ranged from 20 minutes to 24 hours.
For these experiments, the MRSA strain was grown overnight in Mueller-Hinton broth (MH)+2% NaCl at 35° C., subcultured into fresh media, and grown to mid-logarithmic phase. The cells were centrifuged and resuspended in pH 7.4 MH+2% NaCl to produce an OD600 nm known to indicate logarithmic-phase or stationary-phase of growth. An appropriate volume of cells was added to 1 ml of buffered SS in a 10 ml Falcon tube to yield a final concentration of ca. 1×10^8 colony forming units (CFU)/ml, except for the experiments of FIGS. 1-4 where the final concentration of ca. 1×10^6 CFU/ml applies. Survival was determined for bacteria held for varied exposure times of up to 24 hours in the SS or in PBS at pH 5.6 or pH 7.4, each altered with cloxacillin concentrations ranging in doublings from 512 μg/ml to 4096 μg/ml. Survival was measured from samples held at 22° C. and 35° C. After exposure, samples of 50 μl were then withdrawn and a serial dilution series established. Cells were then plated on MH+2% NaCl agar plates and incubated at 22° C. or 35° C. for CFU formation, after which colonies were counted, surviving fractions recorded, and survival curves constructed. Triplicate experiments were conducted for each exposure condition. The cells were treated under static conditions in all cases and treatments were always made on cells held in salt solutions, never on cells held in growth media. In addition to logarithmic-phase cells, stationary-phase cells removed from growth cycle were also treated.
Killing efficiency is evaluated as therapeutically sufficient according to the 10^−5 level of killing in 5 minutes specified by the British Standard BS EN 1276:1997 Chemical Disinfectants and Antiseptics, which is referred to as the gold standard for efficacy of bactericidal agents. Typically, agents meeting the British Standard are too toxic for human topical application. However, this is not a restriction for effective SS containing cloxacillin used in the illustrated embodiment.

Pseudomonas aeruginosa = test: kill curve time course of Pseudomonas aeruginosa suspensions (CFU survival); format: cell-based; conditions: for killing: 20 minutes
Protocol: FIGS. 18 through 41 illustrate kill curve time-course experiments of stationary-phase and logarithmic-phase Pseudomonas aeruginosa bacterial suspensions exposed to PBS, to SS, to PBS in the presence of cloxacillin concentrations spanning from 512 μg/ml to 4096 μg/ml, or to SS in the presence of cloxacillin concentrations spanning from 512 μg/ml to 4096 μg/ml. Experiments were conducted at 22° C. or 35° C. over the course of 10, 20, or 60 minutes.
Pseudomonas aeruginosa cells were prepared as described above for MRSA with a few exceptions. The Pseudomonas aeruginosa cells were first grown in trypticase soy broth and then frozen in aliquots, which were later rescued into MH broth+2% NaCl for use as in the MRSA experiments. An appropriate volume of cells was added to 1 ml of comparative salt solutions in a 10 ml Falcon tube to yield a final concentration of ca. 1×10^8 colony forming units (CFU)/ml. Survival was determined for bacteria held for varied exposure times of up to 60 minutes in PBS, in SS, in PBS altered with cloxacillin concentrations ranging in doublings from 512 μg/ml to 4096 μg/ml, or in SS containing cloxacillin concentrations ranging in doublings from 512 μg/ml to 4096 μg/ml. The salt solutions were compared at a pH of 5.6 or 7.4. Survival was measured from samples held at 22° C. or 35° C. After exposure, samples of 50 μl were then withdrawn and a serial dilution series established. Cells were then plated on MH+2% NaCl agar plates and incubated at 22° C. or 35° C. for CFU formation, after which colonies were counted, surviving fractions recorded, and survival curves constructed. Triplicate experiments were conducted for each exposure condition. The cells were treated under static conditions in all cases and treatments were always made on cells held in salt solutions, never on cells held in growth media. In addition to logarithmic-phase cells, stationary-phase cells removed from growth cycle were also treated.

With `Cc1onc(-c2ccccc2Cl)c1C(=O)N[C@@H]1C(=O)N2[C@@H]1SC(C)(C)[C@@H]2C(=O)O` [cloxacillin] the killing effect ([1]; FIG. 1, pH 5.5 PBS, 1024 μg/ml cloxacillin, 22° C., logarithmic-phase MRSA, 20 minute) was “non-substantial killing effect; also recorded: not effective”, the killing effect ([1]; FIG. 2, pH 7.4 PBS, 512 μg/ml cloxacillin, 22° C., logarithmic-phase MRSA, 20 minute) was “non-substantial killing effect; also recorded: not effective” and the killing effect ([1]; FIG. 3, pH 5.5 SS, 1024 μg/ml cloxacillin, 22° C., logarithmic-phase MRSA, 20 minute) was “not effective; also recorded: non-substantial killing effect”. The killing effect ([1]; FIG. 4, pH 7.4 SS, 512 μg/ml cloxacillin, 22° C., logarithmic-phase MRSA, 60 minute) was “substantial killing; also recorded: killing effect”, the surviving fraction ([1]; FIG. 4, pH 7.4 SS, 512 μg/ml cloxacillin, 22° C., logarithmic-phase MRSA, all time points, no survivors on treated plates) was < 2×10^−4 and the killing effect ([1]; FIG. 5, pH 7.4 SS, 512 μg/ml cloxacillin, 22° C., stationary-phase MRSA, 60 minute) was “killing effect”. For the same molecule, the killing effect ([1]; FIG. 6, pH 7.4 SS, 1024 μg/ml cloxacillin, 22° C., stationary-phase MRSA, 60 minute) was “killing effect”, the killing effect ([1]; FIG. 7, pH 7.4 SS, 2048 μg/ml cloxacillin, 22° C., stationary-phase MRSA, 60 minute) was “killing effect” and the killing effect ([1]; FIG. 8, pH 7.4 SS, 4096 μg/ml cloxacillin, 22° C., stationary-phase MRSA, 60 minute) was “killing effect”. For the same molecule, the “time in which the 10^−5 level of killing is achieved” value ([1]; FIG. 9, pH 7.4 SS, 4096 μg/ml cloxacillin, 22° C., stationary-phase MRSA) was 3 hours, the killing effect ([1]; FIG. 9, pH 7.4 SS, 4096 μg/ml cloxacillin, 22° C., stationary-phase MRSA, 24 hour) was “killing effect” and the killing effect ([1]; FIG. 10, pH 7.4 SS, 512 μg/ml cloxacillin, 35° C., logarithmic-phase MRSA, 20 minute) was “killing effect”. The killing effect ([1]; FIG. 11, pH 7.4 SS, 1024 μg/ml cloxacillin, 35° C., logarithmic-phase MRSA, 20 minute) was “killing effect”, the killing effect ([1]; FIG. 12, pH 7.4 SS, 2048 μg/ml cloxacillin, 35° C., logarithmic-phase MRSA, 20 minute) was “killing effect” and the killing effect ([1]; FIG. 13, pH 7.4 SS, 4096 μg/ml cloxacillin, 35° C., logarithmic-phase MRSA, 20 minute) was “killing effect”. For the same molecule, the killing effect ([1]; FIG. 14, pH 7.4 SS, 512 μg/ml cloxacillin, 35° C., stationary-phase MRSA, 60 minute) was “killing effect”, the killing effect ([1]; FIG. 15, pH 7.4 SS, 1024 μg/ml cloxacillin, 35° C., stationary-phase MRSA, 60 minute) was “killing effect” and the killing effect ([1]; FIG. 16, pH 7.4 SS, 2048 μg/ml cloxacillin, 35° C., stationary-phase MRSA, 60 minute) was “killing effect”. For the same molecule, the killing effect ([1]; FIG. 17, pH 7.4 SS, 4096 μg/ml cloxacillin, 35° C., stationary-phase MRSA, 60 minute) was “killing effect”, the “efficiency of killing versus British Standard BS EN 1276:1997 (10^−5 level of killing in 5 minutes)” value ([1]; FIGS. 5-9, pH 7.4 SS, 512 to 4096 μg/ml cloxacillin, 22° C., stationary-phase MRSA) was “does not provide the 10^−5 level of killing in 5 minutes” and the “killing compared with 22° C.” value ([1]; FIGS. 10-13, pH 7.4 SS, 512 to 4096 μg/ml cloxacillin, 35° C., logarithmic-phase MRSA) was “killing is enhanced”. The “killing compared with 22° C.” value ([1]; FIGS. 14-17, pH 7.4 SS, 512 to 4096 μg/ml cloxacillin, 35° C., stationary-phase MRSA) was “enhanced killing”, the “efficiency of killing versus British Standard BS EN 1276:1997 (10^−5 level of killing in 5 minutes)” value ([1]; pH 7.4 SS with cloxacillin, 35° C., logarithmic-phase MRSA) was “approaches or exceeds the 10^−5 level of killing in 5 minutes” and the “efficiency of killing versus British Standard BS EN 1276:1997 (10^−5 level of killing in 5 minutes)” value ([1]; pH 7.4 SS with cloxacillin, 35° C., stationary-phase MRSA) was “approaches or exceeds the 10^−5 level of killing in 5 minutes”. For the same molecule, the killing effect (Pseudomonas aeruginosa; FIG. 22, pH 7.4 PBS, 512 μg/ml cloxacillin, 22° C., logarithmic-phase, 20 minute) was “non-substantial killing effect”, the killing effect (Pseudomonas aeruginosa; FIG. 23, pH 7.4 PBS, 1024 μg/ml cloxacillin, 22° C., logarithmic-phase, 20 minute) was “non-substantial killing effect” and the killing effect (Pseudomonas aeruginosa; FIG. 24, pH 7.4 PBS, 2048 μg/ml cloxacillin, 22° C., logarithmic-phase, 20 minute) was “non-substantial killing effect”. The killing effect (Pseudomonas aeruginosa; FIG. 25, pH 7.4 PBS, 4096 μg/ml cloxacillin, 22° C., logarithmic-phase, 20 minute) was “non-substantial killing effect”, the killing effect (Pseudomonas aeruginosa; FIG. 26, pH 7.4 SS, 512 μg/ml cloxacillin, 22° C., logarithmic-phase, 20 minute) was “killing effect” and the killing effect (Pseudomonas aeruginosa; FIG. 27, pH 7.4 SS, 1024 μg/ml cloxacillin, 22° C., logarithmic-phase, 20 minute) was “killing effect”. For the same molecule, the killing effect (Pseudomonas aeruginosa; FIG. 28, pH 7.4 SS, 2048 μg/ml cloxacillin, 22° C., logarithmic-phase, 10 minute) was “killing effect”, the killing effect (Pseudomonas aeruginosa; FIG. 29, pH 7.4 SS, 4096 μg/ml cloxacillin, 22° C., logarithmic-phase, 10 minute) was “killing effect” and the killing effect (Pseudomonas aeruginosa; FIG. 30, pH 7.4 PBS, 512 μg/ml cloxacillin, 35° C., logarithmic-phase, 20 minute) was “non-substantial killing effect”. The killing effect (Pseudomonas aeruginosa; FIG. 31, pH 7.4 PBS, 1024 μg/ml cloxacillin, 35° C., logarithmic-phase, 20 minute) was “non-substantial killing effect”, the killing effect (Pseudomonas aeruginosa; FIG. 32, pH 7.4 PBS, 2048 μg/ml cloxacillin, 35° C., logarithmic-phase, 20 minute) was “non-substantial killing effect” and the killing effect (Pseudomonas aeruginosa; FIG. 33, pH 7.4 PBS, 4096 μg/ml cloxacillin, 35° C., logarithmic-phase, 20 minute) was “non-substantial killing effect”. For the same molecule, the killing effect (Pseudomonas aeruginosa; FIG. 34, pH 7.4 SS, 512 μg/ml cloxacillin, 35° C., logarithmic-phase, 20 minute) was “killing effect”, the killing effect (Pseudomonas aeruginosa; FIG. 35, pH 7.4 SS, 1024 μg/ml cloxacillin, 35° C., logarithmic-phase, 20 minute) was “killing effect” and the killing effect (Pseudomonas aeruginosa; FIG. 36, pH 7.4 SS, 2048 μg/ml cloxacillin, 35° C., logarithmic-phase, 20 minute) was “killing effect”. For the same molecule, the killing effect (Pseudomonas aeruginosa; FIG. 37, pH 7.4 SS, 4096 μg/ml cloxacillin, 35° C., logarithmic-phase, 20 minute) was “killing effect”, the killing effect (Pseudomonas aeruginosa; FIG. 38, pH 7.4 SS, 512 μg/ml cloxacillin, 22° C., stationary-phase, 20 minute) was “killing effect” and the killing effect (Pseudomonas aeruginosa; FIG. 39, pH 7.4 SS, 1024 μg/ml cloxacillin, 22° C., stationary-phase, 20 minute) was “killing effect”. The killing effect (Pseudomonas aeruginosa; FIG. 40, pH 7.4 SS, 2048 μg/ml cloxacillin, 22° C., stationary-phase, 20 minute) was “killing effect”, the killing effect (Pseudomonas aeruginosa; FIG. 41, pH 7.4 SS, 4096 μg/ml cloxacillin, 22° C., stationary-phase, 20 minute) was “killing effect” and the killing (Pseudomonas aeruginosa; FIGS. 22-25, PBS pH 7.4, 512 to 4096 μg/ml cloxacillin, 22° C., logarithmic-phase) was “non-substantial killing”. For the same molecule, the efficiency of killing (Pseudomonas aeruginosa; FIGS. 26-29, SS pH 7.4, all concentrations 512 to 4096 μg/ml cloxacillin, 22° C., logarithmic-phase, 10 or 20 minutes) was “substantially efficient in killing”, the killing (Pseudomonas aeruginosa; FIGS. 30-33, PBS pH 7.4, 512 to 4096 μg/ml cloxacillin, 35° C., logarithmic-phase) was “non-substantial killing” and the killing (Pseudomonas aeruginosa; FIGS. 34-37, SS pH 7.4, 512 to 4096 μg/ml cloxacillin, 35° C., logarithmic-phase) was “substantial killing”. The killing (Pseudomonas aeruginosa; FIGS. 38-41, SS pH 7.4, 512 to 4096 μg/ml cloxacillin, 22° C., stationary-phase) was “substantial killing”.
